According to patent US20200253978A1, “HETEROCYCLICS AS INHIBITORS OF FIBROBLAST GROWTH FACTOR RECEPTOR” (ADVENT PHARMA CO. LTD., priority 2017, published 2020):
pIC50: −log10 of the molar value.

Key:
[1] = biological target: T1, BaF3 cells expressing Tel-FGFR-4 and luciferase (Homo sapiens, UniProt P22455); assay: BaF3 cellular growth inhibition assay, Tel-FGFR-4 and luciferase (Bright-Glo); type: cell-based; details: BaF3 Tel-FGFR-4 cells, 2 days incubation, 50% growth inhibition vs DMSO
T1 construct: Luciferase is co-expressed as a viability reporter and is not part of the key; P41212 (Transcription factor ETV6)
Protocol: (§1) Compounds' inhibitory activities against FGFR-4 or FGFR-1 were measured in BaF3 cells expressing Tel-FGFR-4 and luciferase or Tel-FGFR-1 and luciferase, whose growth was dependent on FGFR-4 or FGFR-1 kinase but independent of IL-3. The cells were plated in 384-well plates in RPMI1640 with 10% FBS. Compounds were added as 11-point dilutions. Cell viability was determined by Bright-Glo luciferase assay (Promega) after cells were incubated with compounds for 2 days. The IC50 value was determined as the concentration for 50% growth inhibition compared to DMSO treated cells (A: IC50<0.1 μM; B: IC50 between 0.1 μM and 1 μM; C: IC50 between 1 μM and 10 μM).

[2] = biological target: T2, BaF3 cells expressing Tel-FGFR-1 and luciferase (Homo sapiens, UniProt P11362); assay: BaF3 cellular growth inhibition assay, Tel-FGFR-1 and luciferase (Bright-Glo); type: cell-based; details: BaF3 Tel-FGFR-1 cells, 2 days incubation, 50% growth inhibition vs DMSO
T2 construct: Luciferase is co-expressed as a viability reporter and is not part of the key; P41212 (Transcription factor ETV6)
Protocol: as §1

T1 sequence (P22455 467-755 limits assumed): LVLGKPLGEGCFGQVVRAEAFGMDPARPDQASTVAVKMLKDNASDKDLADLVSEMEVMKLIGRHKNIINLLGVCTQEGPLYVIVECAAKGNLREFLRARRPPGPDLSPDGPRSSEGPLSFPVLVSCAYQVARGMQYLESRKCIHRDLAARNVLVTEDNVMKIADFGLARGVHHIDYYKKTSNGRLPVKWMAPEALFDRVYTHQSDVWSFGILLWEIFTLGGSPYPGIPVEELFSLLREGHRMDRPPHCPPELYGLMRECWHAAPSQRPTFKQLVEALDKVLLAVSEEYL
T2 sequence (P11362 478-767 limits assumed): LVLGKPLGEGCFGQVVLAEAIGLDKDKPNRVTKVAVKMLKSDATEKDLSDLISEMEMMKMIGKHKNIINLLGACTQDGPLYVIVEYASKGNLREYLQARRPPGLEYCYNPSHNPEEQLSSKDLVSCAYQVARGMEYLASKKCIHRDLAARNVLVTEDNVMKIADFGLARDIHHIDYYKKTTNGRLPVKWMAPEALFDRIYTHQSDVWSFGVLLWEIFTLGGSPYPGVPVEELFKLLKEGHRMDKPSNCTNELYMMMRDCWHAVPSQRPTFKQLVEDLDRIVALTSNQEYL

Compound | pIC50 [1] | pIC50 ([2]; class symbols) | pIC50 ([2]; numeric bounds)
C=CC(=O)Nc1cc(N2CCN(CC)CC2)ccc1Nc1cc2cc(C(=O)c3c(F)c(OC)cc(OC)c3F)n(C)c2cn1 [Example 19, N-(2-((2-(2,6-difluoro-3,5-dimethoxybenzoyl)-1-methyl-1H-pyrrolo[2,3-c]pyridin-5-yl)amino)-5-(4-ethylpiperazin-1-yl)phenyl)acrylamide] | 6.00 to 7.00 | 5.00 to 6.00 | –
C=CC(=O)Nc1cn(C)nc1Nc1cc2cc(C(O)c3c(F)c(OC)cc(OC)c3F)oc2cn1 (racemic) [Example 10, (±)-N-(3-((2-((2,6-difluoro-3,5-dimethoxyphenyl)(hydroxy)methyl)furo[2,3-c]pyridin-5-yl)amino)-1-methyl-1H-pyrazol-4-yl)acrylamide] | 6.00 to 7.00 | – | < 5.48
C=CC(=O)Nc1cc(N2CCN(CC)CC2)ccc1Nc1ncc2oc(C(=O)c3c(F)c(OC)cc(OC)c3F)cc2n1 [Example 20, N-(2-((6-(2,6-difluoro-3,5-dimethoxybenzoyl)furo[3,2-d]pyrimidin-2-yl)amino)-5-(4-ethylpiperazin-1-yl)phenyl)acrylamide] | > 7.00 | 5.00 to 6.00 | –

Second part, the compound after the results:

pIC50 [1] | pIC50 ([2]; class symbols) | pIC50 ([2]; numeric bounds) | Compound
> 7.00 | – | < 5.00 | C=CC(=O)N[C@H]1CCOC[C@H]1Nc1ncc2oc(C(=O)c3c(F)c(OC)cc(OC)c3F)cc2n1 [Example 35, N-((3S,4S)-3-((6-(2,6-difluoro-3,5-dimethoxybenzoyl)furo[3,2-d]pyrimidin-2-yl)amino)tetrahydro-2H-pyran-4-yl)acrylamide]
5.00 to 6.00 | – | < 5.00 | C=CC(=O)Nc1cc(N2CCN(CC)CC2)ccc1Nc1cc2c(O)c(C(=O)c3c(F)c(OC)cc(OC)c3F)oc2cn1 [Example 36, N-(2-((2-(2,6-difluoro-3,5-dimethoxybenzoyl)-3-hydroxyfuro[2,3-c]pyridin-5-yl)amino)-5-(4-ethylpiperazin-1-yl)phenyl)acrylamide]
5.00 to 6.00 | – | < 5.00 | C=CC(=O)N[C@H]1CCOC[C@H]1Nc1ncc2oc(C(O)c3c(F)c(OC)cc(OC)c3F)cc2n1 (stereo partly drawn) [Example 34, N-((3S,4S)-3-((6-((2,6-difluoro-3,5-dimethoxyphenyl)(hydroxy)methyl)furo[3,2-d]pyrimidin-2-yl)amino)tetrahydro-2H-pyran-4-yl)acrylamide]
